Reference: patent US11008321B2, “Crystalline form of an avibactam derivative” (ARIXA PHARMACEUTICALS, INC., priority 2019, dated 2021)

Assays:
[1] = Dynamic vapor sorption (hygroscopicity); type: physicochemical
Description: The hygroscopicity of crystalline ethyl 3-(((((1R,2S,5R)-2-carbamoyl-7-oxo-1,6-diazabicyclo[3.2.1]octan-6-yl)oxy)sulfonyl)oxy)-2,2-dimethylpropanoate anhydrate (1) was evaluated during one vapor sorption/desorption cycle using a SMS DVS Intrinsic from Surface Measurement Systems set at 25° C., with a nitrogen (N2) gas flow rate of 200 mL/min, a dm/dt of 0.02%/min and a minimum dm/dt stability duration of 10 min. Samples (10 mg to 20 mg) were first dried at 25° C. for 180 min under a nitrogen atmosphere. The samples were considered equilibrated with the weight change during a 2-min interval was less than 0.01%. To evaluate the DVS the samples were exposed to a humidity cycle ramped/de-ramped from 5% RH to 95% RH at 10% RH intervals. At each humidity interval, the samples were equilibrated as determined by a less than 0.01% weight change during 5 min.

[2] = Thermogravimetric analysis; type: physicochemical; conditions: 10° C./min, N2
Description: Thermogravimetric analysis was performed using a TA Instruments Q500 TGA calibrated using a nickel reference standard. Samples were placed in an open platinum pan and after equilibrating at 35° C., the samples were heated under a nitrogen (N2) atmosphere at a rate of 10° C./min to a final temperature of 200° C. TGA curves for crystalline ethyl 3-(((((1R,2S,5R)-2-carbamoyl-7-oxo-1,6-diazabicyclo[3.2.1]octan-6-yl)oxy)sulfonyl)oxy)-2,2-dimethylpropanoate anhydrate are shown in FIGS. 2 and 4 show a weight loss of 9.7% between 125° C. to 150° C. The weight loss form 30° C. to 125° C. was 0.77%.

[3] = Stability on exposure to ambient conditions and formulation processing; type: physicochemical
[4] = Jet milling, crystalline form by XRPD before and after; type: physicochemical; conditions: jet milled, particle size about 8.6 μm
Description: X-ray powder diffraction (XPRD) analysis was performed using a Panalytical X-Pert Powder XPRD (Malvem Panalytical Ltd.) on a Si zero-background holder. The 20 position was calibrated against a Panalytical Si standard disc. The X-ray wavelength was Kα2/Kα1 (1.540598 Å/1.544425 Å) at a 0.5 intensity ratio. The X-ray tube was set at an output voltage of 45 kV and a current of 40 mA. A ⅛° fixed divergence slit was used and the diffraction patterns were obtained from 3° to 40° (°2θ) in a continuous scan mode using a step size of 0.01310 (2θ) and a scan speed of 0.145 deg/min. Crystalline anhydrate (1) was jet milled to obtain a uniform particle size distribution centered at a about 8.6 μm. An Alpine 50AS (PDS-PL-JM-01) Jet Mill (Hosokawa Alpine) was used to prepare the formulation. The injector gas pressure was 4.0 Bar and the grinding gas pressure was 3.5 Bar. Five (5) gm of crystalline anhydrate (1) was gradually added to the jet mill and collected. The milled product was stored at a temperature from 2° C. to 8° C.

[5] = Stability in aqueous suspension formulation (XRPD); type: physicochemical; conditions: 25° C., 24 hours; 0.25 wt % Tween 80, 10 wt % PEG 400, 0.5 wt % methylcellulose, pH 3.0 citrate buffer
Description: X-ray powder diffraction (XPRD) analysis was performed using a Panalytical X-Pert Powder XPRD (Malvem Panalytical Ltd.) on a Si zero-background holder. The 20 position was calibrated against a Panalytical Si standard disc. The X-ray wavelength was Kα2/Kα1 (1.540598 Å/1.544425 Å) at a 0.5 intensity ratio. The X-ray tube was set at an output voltage of 45 kV and a current of 40 mA. A ⅛° fixed divergence slit was used and the diffraction patterns were obtained from 3° to 40° (°2θ) in a continuous scan mode using a step size of 0.01310 (2θ) and a scan speed of 0.145 deg/min. An aqueous formulation of crystalline anhydrate (1) was prepared by suspending 100 mg crystalline anhydrate (1) in 100 mL of an aqueous solution containing 0.25 wt % Tween® 80, 10 wt % PEG 400, 0.5 wt % methylcellulose (400 cps), and a pH 3.0 citrate buffer. The suspension was sonicated and equilibrated for 24 hours at 25° C. before filtering out the crystalline anhydrate (1).

[6] = trans isomer vs cis isomer; cited from earlier work

change of crystalline form during water absorption/desorption (reversibility of DVS isotherm) ([1]; 25° C., one sorption/desorption cycle, 5% RH to 95% RH)	maximum increase in mass (moisture absorption) ([1]; 25° C./95% RH, humidity range 0% RH to 95% RH, reversible)	weight loss (TGA) ([2]; 30° C. to 125° C.)	weight loss (TGA) ([2]; between 125° C. to 150° C.)	stability following exposure to ambient conditions ([3]; 25° C./60% RH)	stability during formulation processing conditions ([3]; formulation processing conditions)	crystalline form before and after jet-milling (XRPD) [4]	stability in an aqueous suspension (XRPD similarity) [5]	Compound	antibiotic activity of trans isomer relative to cis isomer [6]
does not change	about 3 wt %	0.77%	9.7%	stable	stable	the same	stable	CCOC(=O)C(C)(C)COS(=O)(=O)ON1C(=O)N2C[C@H]1CC[C@H]2C(N)=O [crystalline anhydrate (1), ethyl 3-(((((1R,2S,5R)-2-carbamoyl-7-oxo-1,6-diazabicyclo[3.2.1]octan-6-yl)oxy)sulfonyl)oxy)-2,2-dimethylpropanoate]	
								Nc1nc(/C(=C/CC(=O)O)C(=O)N[C@@H]2C(=O)N3C(C(=O)O)=CCS[C@H]23)cs1 [Ceftibuten, (6R,7R)-7-((Z)-2-(2-amino-4-thiazolyl)-4-carboxycrotonamido)-8-oxo-5-thia-1-azabicyclo(4.2.0)oct-2-ene-2-carboxylic acid]	about one-eighth
